Laboratory results: patent US8394825B2, “Compound” (Sterix Limited, priority 2007, dated 2013)

SMILES	melting point
CCOC1CN(Cc2ccc(OC)cc2)Cc2cc(OC)c(O)cc21 (stereo not drawn) [F36, 4-Ethoxy-7-methoxy-2-(4-methoxybenzyl)-1,2,3,4-tetrahydroisoquinolin-6-ol]	154 to 157 °C
CCOC1CN(Cc2cc(OC)c(OC)c(OC)c2)Cc2cc(OC)c(O)cc21 (stereo not drawn) [F37, 4-Ethoxy-7-methoxy-2-(3,4,5-trimethoxybenzyl)-1,2,3,4-tetrahydroisoquinolin-6-ol]	94 to 96 °C
COc1cc2c(cc1OCc1ccccc1)CCN(Cc1cccc([N+](=O)[O-])c1)C2 [compound 10, 6-Benzyloxy-7-methoxy-2-(3-nitrobenzyl)-1,2,3,4-tetrahydroisoquinoline]	109 to 110 °C
COc1cc2c(cc1OCc1ccccc1)CCN(Cc1cccnc1)C2 [compound 11, 6-Benzyloxy-7-methoxy-2-(pyridin-3-ylmethyl)-1,2,3,4-tetrahydroisoquinoline]	78 to 79 °C
COc1cc2c(cc1OCc1ccccc1)CCN(Cc1ccccn1)C2 [compound 12, 6-Benzyloxy-7-methoxy-2-(pyridin-2-ylmethyl)-1,2,3,4-tetrahydroisoquinoline]	73 to 74 °C
COc1cc2c(cc1OCc1ccccc1)CCN(Cc1ccncc1)C2 [compound 13, 6-Benzyloxy-7-methoxy-2-(pyridin-4-ylmethyl)-1,2,3,4-tetrahydroisoquinoline]	125 to 126 °C
COc1ccc(CCN2CCc3cc(OCc4ccccc4)c(OC)cc3C2)cc1 [compound 14, 6-Benzyloxy-7-methoxy-2-(4-methoxyphenethyl)-1,2,3,4-tetrahydroisoquinoline]	88 to 89 °C
COc1ccc(C(=O)CN2CCc3cc(OCc4ccccc4)c(OC)cc3C2)cc1OC [compound 15, 6-Benzyloxy-2-(2-(3,4-dimethoxyphenyl)-2-oxoethyl)-7-methoxy-1,2,3,4-tetrahydroisoquinoline]	126 to 127 °C
COc1ccc(CN2CCc3cc(OCc4ccccc4)c(OC)cc3C2)cc1OC [compound 18, 6-Benzyloxy-7-methoxy-2-(3,4-dimethoxybenzyl)-1,2,3,4-tetrahydroisoquinoline]	98 to 99 °C
COc1cc2c(cc1OCc1ccccc1)CCN(Cc1cccc(O)c1)C2 [compound 30, 6-Benzyloxy-2-(3-hydroxybenzyl)-7-methoxy-1,2,3,4-tetrahydroisoquinoline]	78 to 79 °C
COc1cc2c(cc1OCc1ccccc1)CCN(Cc1cccc(NC(C)=O)c1)C2 [compound 35, 2-(3-Acetamidobenzyl)-6-(benzyloxy)-7-methoxy-1,2,3,4-tetrahydroisoquinoline]	63 to 66 °C
COc1cc2c(cc1OCc1ccccc1)CCN(Cc1cccc(NS(C)(=O)=O)c1)C2 [compound 36, 6-(Benzyloxy)-2-(3-methanesulfonylaminobenzyl)-7-methoxy-1,2,3,4-tetrahydroisoquinoline]	132 to 133 °C
COc1cccc(CN2CCc3cc(O)ccc3C2)c1 [compound 37, 6-Hydroxy-2-(3-methoxybenzyl)-1,2,3,4-tetrahydroisoquinoline]	223 to 224 °C
COc1ccc(CCN2CCc3cc(O)c(OC)cc3C2)cc1 [compound 46, 6-Hydroxy-7-methoxy-2-(4-methoxyphenethyl)-1,2,3,4-tetrahydroisoquinoline]	170 to 171 °C
COc1cc2c(cc1O)CCN(Cc1cccnc1)C2 [compound 47, 6-Hydroxy-7-methoxy-2-(pyridin-3-ylmethyl)-1,2,3,4-tetrahydroisoquinoline]	165 to 166 °C
COc1cc2c(cc1O)CCN(Cc1ccccn1)C2 [compound 48, 6-Hydroxy-7-methoxy-2-(pyridin-2-ylmethyl)-1,2,3,4-tetrahydroisoquinoline]	137 to 138 °C
COc1cc2c(cc1O)CCN(Cc1cccc(OC(C)=O)c1)C2 [compound 51, 6-Hydroxy-7-methoxy-2-(3-acetoxybenzyl)-1,2,3,4-tetrahydroisoquinoline]	120 to 122 °C
COc1cc2c(cc1O)CCN(Cc1cccc(NS(C)(=O)=O)c1)C2 [compound 52, 6-Hydroxy-7-methoxy-2-(3-methanesulfonylaminobenzyl)-1,2,3,4-tetrahydroisoquinoline]	99 to 101 °C
COc1cc2c(cc1O)CCN(CC(=O)c1ccc(OC)c(OC)c1)C2 [compound 53, 2-(2-(3,4-Dimethoxyphenyl)-2-oxoethyl)-6-hydroxy-7-methoxy-1,2,3,4-tetrahydroisoquinoline]	149 to 150 °C
COc1cc2c(cc1O)CCN(Cc1cccc(C(C)=O)c1)C2 [compound 62, 6-Hydroxy-7-methoxy-2-(3-acetylbenzyl)-1,2,3,4-tetrahydroisoquinoline]	132 to 134 °C
COc1cc2c(cc1OS(N)(=O)=O)CCN(Cc1cccc(NS(C)(=O)=O)c1)C2 [compound 88, 7-Methoxy-2-(3-(methylsulfonamido)benzyl)-1,2,3,4-tetrahydroisoquinolin-6-yl sulfamate]	151 to 152 °C
COc1cc2c(cc1OCc1ccccc1)CCN(C(=O)c1cc(OC)c(OC)c(OC)c1)C2 [compound 111, 6-Benzyloxy-7-methoxy-2-(3,4,5-trimethoxybenzoyl)-1,2,3,4-tetrahydroisoquinoline]	63 to 64 °C
COc1cccc(C(=O)N2CCc3cc(OCc4ccccc4)c(OC)cc3C2=O)c1 [compound 131, 6-Benzyloxy-7-methoxy-2-(3-methoxybenzoyl)-3,4-dihydro-2H-isoquinoline-1-one]	141 to 143 °C
COc1cc(OC)cc(C(=O)N2CCc3cc(OCc4ccccc4)ccc3C2=O)c1 [compound 132, 6-Benzyloxy-2-(3,5-dimethoxybenzoyl)-3,4-dihydro-2H-isoquinoline-1-one]	158 to 159 °C
COc1cc(OC)cc(C(=O)N2CCc3cc(O)ccc3C2=O)c1 [compound 137, 2-(3,5-Dimethoxybenzoyl)-6-hydroxy-3,4-dihydro-2H-isoquinoline-1-one]	178 to 179 °C
COc1cc2c(cc1O)CC(C)N(Cc1cc(OC)c(OC)c(OC)c1)C2 (stereo not drawn) [compound 219, 2-(3,4,5-Trimethoxybenzyl)-1,2,3,4-tetrahydro-7-methoxy-3-methylisoquinolin-6-ol]	127 to 132 °C
COc1cc2c(cc1O)CC(C)(C)N(Cc1cc(OC)c(OC)c(OC)c1)C2 [compound 229, 7-Methoxy-3,3-dimethyl-2-(3,4,5-trimethoxy-benzyl)-1,2,3,4-tetrahydro-isoquinolin-6-ol]	143 to 147 °C
COc1cc(OC)cc(C(=O)N2Cc3cc(OC)c(O)cc3CC2(C)C)c1 [compound 235, (3,4-Dihydro-6-hydroxy-7-methoxy-3,3-dimethylisoquinolin-2(1H)-yl)(3,5-dimethoxyphenyl)methanone]	163 to 166 °C
COc1cc2c(cc1OCc1ccccc1)CC(C)(C)N(C(=O)c1cc(OC)c(OC)c(OC)c1)C2C (stereo not drawn) [compound 245, (6-(Benzyloxy)-3,4-dihydro-7-methoxy-1,3,3-trimethylisoquinolin-2(1H)-yl)-(3,4,5-trimethoxyphenyl)methanone]	175 to 177 °C
COc1cc2c(cc1O)CC(C)(C)N(C(=O)c1cc(OC)c(OC)c(OC)c1)C2C (stereo not drawn) [compound 246, (3,4-Dihydro-6-hydroxy-7-methoxy-1,3,3-trimethylisoquinolin-2(1H)-yl)(3,4,5-trimethoxyphenyl)methanone]	198 to 200 °C
